Key:
LYN = LYN (Homo sapiens, UniProt P07948); test: In vitro enzymatic phosphorylation assay, LYN; type: biochemical
FYN = FYN (Homo sapiens, UniProt P06241); test: In vitro enzymatic phosphorylation assay, FYN; type: biochemical
FYN, sequence (P06241 whole entry, species assumed): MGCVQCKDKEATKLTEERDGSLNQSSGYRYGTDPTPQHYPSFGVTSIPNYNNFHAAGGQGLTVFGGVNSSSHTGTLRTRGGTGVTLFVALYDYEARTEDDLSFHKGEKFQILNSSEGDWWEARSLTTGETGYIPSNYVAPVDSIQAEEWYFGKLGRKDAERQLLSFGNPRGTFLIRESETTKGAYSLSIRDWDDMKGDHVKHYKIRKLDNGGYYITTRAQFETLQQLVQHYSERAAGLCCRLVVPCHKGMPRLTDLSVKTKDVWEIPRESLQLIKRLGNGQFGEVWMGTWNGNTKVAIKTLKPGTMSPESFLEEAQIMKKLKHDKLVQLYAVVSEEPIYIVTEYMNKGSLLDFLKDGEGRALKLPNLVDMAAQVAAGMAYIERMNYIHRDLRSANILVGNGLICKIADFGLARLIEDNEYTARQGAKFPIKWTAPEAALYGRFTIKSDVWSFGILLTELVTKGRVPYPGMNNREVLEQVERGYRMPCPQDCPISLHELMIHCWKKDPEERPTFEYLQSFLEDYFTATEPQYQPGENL

LYN, sequence (P07948 whole entry, species assumed): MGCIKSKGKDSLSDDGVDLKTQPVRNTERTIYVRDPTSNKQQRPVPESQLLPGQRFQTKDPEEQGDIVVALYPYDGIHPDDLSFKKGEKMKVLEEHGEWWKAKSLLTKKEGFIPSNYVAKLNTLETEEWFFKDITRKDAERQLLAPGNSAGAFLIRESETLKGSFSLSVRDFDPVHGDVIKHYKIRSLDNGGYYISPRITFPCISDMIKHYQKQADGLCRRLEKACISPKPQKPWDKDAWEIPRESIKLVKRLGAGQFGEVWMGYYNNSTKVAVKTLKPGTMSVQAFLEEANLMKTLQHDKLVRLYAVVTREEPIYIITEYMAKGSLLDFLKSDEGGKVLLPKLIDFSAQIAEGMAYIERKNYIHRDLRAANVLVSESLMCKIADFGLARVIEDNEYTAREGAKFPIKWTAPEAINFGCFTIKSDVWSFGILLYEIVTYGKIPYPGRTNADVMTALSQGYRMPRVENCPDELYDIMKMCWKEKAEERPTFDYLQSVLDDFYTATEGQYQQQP

Cc1ccc(NC(=O)c2ccc(CN3CCN(C)CC3)cc2)cc1Nc1nc(-c2cccnc2)cs1 [masitinib, 4-(4-methylpiperazin-1-ylmethyl)-N-[4-methyl-3-(4-pyridin-3y1thiazol-2-ylamino)phenyl]benzamide]
IC50 (LYN): 0.22 µM | IC50 (FYN): 0.24 µM
